Measured values from ChEMBL document CHEMBL1201862, “PubChem BioAssay data set” (2004).
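A five-concentration, 48-hour dose response in 96-well plates underlies each endpoint, interpolated linearly between surrounding concentrations. GI50 marks 50% less growth.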 Activity calls are given as the source filed them. Cut-off read from the data, not from the text of the source: active = GI50 up to about 1.1 µM and inactive = higher.

Columns and labels:
Experiment in all cases: growth of human tumour cells (NCI), 48 h
CAKI-1 = tested on: CAKI-1
SK-MEL-28 = tested on: SK-MEL-28
786-0 = tested on: 786-0
SNB-19 = tested on: SNB-19
SF-268 = tested on: SF-268
EKVX = tested on: EKVX
Malme-3M = tested on: Malme-3M
A549 = tested on: A549
HCT-116 = tested on: HCT-116
IGROV-1 = tested on: IGROV-1
OVCAR-5 = tested on: OVCAR-5
A498 = tested on: A498
K562 = tested on: K562
SF-539 = tested on: SF-539
NCI-H226 = tested on: NCI-H226
NCI-H23 = tested on: NCI-H23
RXF 393 = tested on: RXF 393

| SMILES | GI50 (CAKI-1) | GI50 (SK-MEL-28) | GI50 (786-0) | GI50 (SNB-19) | GI50 (SF-268) | GI50 (EKVX) | GI50 (Malme-3M) | GI50 (A549) | GI50 (HCT-116) | GI50 (IGROV-1) | GI50 (OVCAR-5) | GI50 (A498) | GI50 (K562) | GI50 (SF-539) | GI50 (NCI-H226) | GI50 (NCI-H23) | GI50 (RXF 393) |
| --- | --- | --- | --- | --- | --- | --- | --- | --- | --- | --- | --- | --- | --- | --- | --- | --- | --- |
| CC(=O)c1ccccc1NC(=O)C(=O)C(C(=O)c1ccc2ccccc2c1)C1OC(=O)c2ccccc21 (stereo not given) | 10.6 µM (inactive) | 11.3 µM (inactive) | 6.61 µM (inactive) | 4.73 µM (inactive) | 9.27 µM (inactive) | 97.9 µM (inactive) | 3.7 µM (inactive) | 19.3 µM (inactive) | 13.1 µM (inactive) | 16.1 µM (inactive) | 22.2 µM (inactive) | 15.2 µM (inactive) | 9.04 µM (inactive) | 4.72 µM (inactive) | 2.26 µM (inactive) | 6.49 µM (inactive) |  |
| Nc1ccc(C(=O)NN2C(=O)C(Cl)C2c2cc(Br)ccc2O)cc1 (stereo not given) | > 100 µM (inactive) | > 100 µM (inactive) | 78.9 µM (inactive) | > 100 µM (inactive) | 50.5 µM (inactive) | > 100 µM (inactive) | > 100 µM (inactive) | > 100 µM (inactive) | 15.9 µM (inactive) | 36.5 µM (inactive) | > 100 µM (inactive) | > 100 µM (inactive) | 70.1 µM (inactive) | > 100 µM (inactive) | > 100 µM (inactive) | > 100 µM (inactive) |  |
| NC(=S)N1N=C2c3ccccc3CC[C@H]2[C@@H]1c1cccs1 |  | 44.3 µM (inactive) | 43.9 µM (inactive) | 75.7 µM (inactive) | 40.6 µM (inactive) | 38.4 µM (inactive) | 19.2 µM (inactive) | 30.1 µM (inactive) | 28.8 µM (inactive) | 37.2 µM (inactive) | > 100 µM (inactive) | 60.3 µM (inactive) | 7.69 µM (inactive) | 43.2 µM (inactive) | 29 µM (inactive) | 24.6 µM (inactive) | 16.8 µM (inactive) |
| O=C(CN1CCOCC1)Nc1nc(-c2ccc(Cl)cc2)cs1 | 34.4 µM (inactive) | 25.6 µM (inactive) | 60.3 µM (inactive) | 39.1 µM (inactive) | 25.1 µM (inactive) | 75.2 µM (inactive) | 23.1 µM (inactive) | 24.4 µM (inactive) |  | 45.2 µM (inactive) | 89.7 µM (inactive) | 23.1 µM (inactive) | 19.4 µM (inactive) | 44.4 µM (inactive) | 24 µM (inactive) | 15.1 µM (inactive) |  |
| CCN(CC)c1oc(N(CC)CC)c(C(=O)Nc2ccccn2)c(=O)c1C(C)=O | > 100 µM (inactive) | > 100 µM (inactive) | > 100 µM (inactive) | > 100 µM (inactive) | 90.8 µM (inactive) | > 100 µM (inactive) | > 100 µM (inactive) | > 100 µM (inactive) | > 100 µM (inactive) | > 100 µM (inactive) | > 100 µM (inactive) | > 100 µM (inactive) | > 100 µM (inactive) | > 100 µM (inactive) | > 100 µM (inactive) | > 100 µM (inactive) |  |
| CCCCCCCCCCCOc1ccc(C(=O)C(=O)c2ccc(OCCCCCCCCCCC)c(OCCCCCCCCCCC)c2)cc1OCCCCCCCCCCC | > 100 µM (inactive) | > 100 µM (inactive) | > 100 µM (inactive) | > 100 µM (inactive) | > 100 µM (inactive) | > 100 µM (inactive) | > 100 µM (inactive) | > 100 µM (inactive) | > 100 µM (inactive) | > 100 µM (inactive) | > 100 µM (inactive) | > 100 µM (inactive) | > 100 µM (inactive) | > 100 µM (inactive) | > 100 µM (inactive) | > 100 µM (inactive) |  |
| CC(CCC(=O)O)c1ccc(Br)cc1 (stereo not given) | > 100 µM (inactive) | > 100 µM (inactive) | > 100 µM (inactive) | > 100 µM (inactive) | > 100 µM (inactive) | > 100 µM (inactive) | > 100 µM (inactive) | > 100 µM (inactive) | > 100 µM (inactive) | > 100 µM (inactive) | > 100 µM (inactive) |  | > 100 µM (inactive) |  | > 100 µM (inactive) | > 100 µM (inactive) | > 100 µM (inactive) |
| CSCCOC(=O)C(=[N+]=[N-])c1ccc([N+](=O)[O-])cc1 | > 100 µM (inactive) | > 100 µM (inactive) | > 100 µM (inactive) | > 100 µM (inactive) | > 100 µM (inactive) | > 100 µM (inactive) | > 100 µM (inactive) | > 100 µM (inactive) | > 100 µM (inactive) | > 100 µM (inactive) | > 100 µM (inactive) |  | > 100 µM (inactive) | > 100 µM (inactive) | > 100 µM (inactive) | > 100 µM (inactive) | > 100 µM (inactive) |
| Cc1c2cc[n+](C)cc2c(C)c2c1[nH]c1ccc(Oc3ccccc3)cc12 | 2.12 µM (inactive) | 2.89 µM (inactive) | 0.518 µM (active) | 0.506 µM (active) | 1.03 µM (active) | 3.08 µM (inactive) | 1.71 µM (inactive) | 0.272 µM (active) | 1.29 µM (inactive) | 2.37 µM (inactive) | 2.51 µM (inactive) |  | 0.665 µM (active) | 1.26 µM (inactive) | 0.544 µM (active) | 0.53 µM (active) |  |
| CC(C)C(Nc1c2ccccc2[n+](C)c2ccccc12)C(=O)O (stereo not given) | > 100 µM (inactive) |  | > 100 µM (inactive) | > 100 µM (inactive) | > 100 µM (inactive) | > 100 µM (inactive) | > 100 µM (inactive) | > 100 µM (inactive) | > 100 µM (inactive) | > 100 µM (inactive) | > 100 µM (inactive) | > 100 µM (inactive) | > 100 µM (inactive) | > 100 µM (inactive) | > 100 µM (inactive) | > 100 µM (inactive) | > 100 µM (inactive) |
| CCOC(C[C@H](O[Si](C)(C)C(C)(C)C)[C@H]1COC(=S)S1)OCC |  | > 100 µM (inactive) | > 100 µM (inactive) | 28.8 µM (inactive) | > 100 µM (inactive) | > 100 µM (inactive) | > 100 µM (inactive) | 70.5 µM (inactive) | 39.2 µM (inactive) |  |  |  | 41.3 µM (inactive) | 33.6 µM (inactive) | 85.1 µM (inactive) | 53.5 µM (inactive) |  |
| O=C(O)C12C3C4C1C1C2C3C1(Br)C41OCCO1 (stereo not given) |  | > 100 µM (inactive) | > 100 µM (inactive) | > 100 µM (inactive) | > 100 µM (inactive) | > 100 µM (inactive) | > 100 µM (inactive) | > 100 µM (inactive) | > 100 µM (inactive) | > 100 µM (inactive) | > 100 µM (inactive) | > 100 µM (inactive) | > 100 µM (inactive) | > 100 µM (inactive) |  | > 100 µM (inactive) | > 100 µM (inactive) |
| COc1ccc2nc(NC(=O)C(=O)C(C#N)c3ccc([N+](=O)[O-])cc3)sc2c1 (stereo not given) | > 100 µM (inactive) | > 100 µM (inactive) | > 100 µM (inactive) | > 100 µM (inactive) | > 100 µM (inactive) | 31.9 µM (inactive) | > 100 µM (inactive) | > 100 µM (inactive) | > 100 µM (inactive) | > 100 µM (inactive) | > 100 µM (inactive) |  | 72.1 µM (inactive) | > 100 µM (inactive) | > 100 µM (inactive) | > 100 µM (inactive) | > 100 µM (inactive) |
